Read-outs that look alike come from different tables or passages of the source.
Columns and labels:
[1] = molecular target: T1, human histamine H3 receptor (Homo sapiens, UniProt Q9Y5N1); assay: H3 GTPγS assay (SPA method), histamine H3 in vitro assay; type: biochemical; conditions: GTPγ[35S] SPA, membranes of cells expressing human H3 receptor; in one embodiment HCl salts tested; read-out: Potency (functional potency as indicated by IC50)
T1 construct: host or cells: cells expressing the human H3 receptor
T1 sequence (Q9Y5N1 whole entry): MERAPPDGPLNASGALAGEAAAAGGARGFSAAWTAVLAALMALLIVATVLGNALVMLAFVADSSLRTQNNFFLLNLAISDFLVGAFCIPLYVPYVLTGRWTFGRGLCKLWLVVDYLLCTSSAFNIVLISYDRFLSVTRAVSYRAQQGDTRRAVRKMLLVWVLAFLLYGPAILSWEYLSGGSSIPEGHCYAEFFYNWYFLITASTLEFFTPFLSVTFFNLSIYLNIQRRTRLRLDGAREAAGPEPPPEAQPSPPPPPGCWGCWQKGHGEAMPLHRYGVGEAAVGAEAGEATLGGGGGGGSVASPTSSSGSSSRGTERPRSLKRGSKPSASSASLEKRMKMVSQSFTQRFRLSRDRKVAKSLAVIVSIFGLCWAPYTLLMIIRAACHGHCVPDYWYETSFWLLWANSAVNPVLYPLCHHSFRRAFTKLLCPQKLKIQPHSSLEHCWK
Description: H3 GTPγS assay (SPA method) was performed at EuroScreen (Belgium, ES-392-C) using conventional methods. Briefly, cells expressing the human histamine H3 receptor were homogenized in 15 mM Tris-HCl pH 7.5, 2 mM MgCl2, 0.3 mM EDTA, and 1 mM EGTA. Membranes were washed twice in the above tris buffer, collected by centrifugation (40,000×g, 25 min), and re-suspended in 75 mM Tris-HCl pH 7.5, 12.5 mM MgCl2, 0.3 mM EDTA, 1 mM EGTA, and 250 mM sucrose. Membranes were frozen in liquid nitrogen until use. On the day of the assay, membranes were thawed and diluted in assay buffer (20 mM HEPES pH 7.4, 100 mM NaCl, 10 μg/ml saponin, 1 mM MgCl2) to give 500 μg/ml and mixed (v/v) with GDP in assay buffer for a final GDP concentration of 10 μM and incubated on ice for at least 15 min. PVT-WGA beads (Amersham, RPNQ001) were diluted in assay buffer at 50 mg/mL and mixed with GTPγ[^35S] (Amersham, SJ1308) diluted in assay buffer to give ˜25,000 dpm/10 μL, and mixed vol/vol just before the start of the reaction. The reaction was started by adding 50 μL of test compound, 20 μL of the membranes:GDP mix, 10 μL of buffer, and 20 μL of the GTPγ[^35S]:beads mix in a 96 well plate Optiplate™ (PerkinElmer, 6005299) covered with topseal (TopCount™, PerkinElmer), mixed with an orbital shaker for 2 min, incubated for 1 hour at room temperature, centrifuged for 10 min at 2000 rpm, incubated for 1 h at room temperature, and counted for 1 min in a TopCount™ reader (PerkinElmer). Dose response curves and IC50 values (concentration to inhibit the reaction by 50%) were calculated by nonlinear regression using XLfit software (IDBS).
For antagonists testing, 10 μL of a reference agonist (R-γ-Me-Histamine) instead of 10 μL buffer was added at a concentration corresponding to the EC80 (30 nM). Control ligands were R-γ-Me-Histamine (Tocris, 0569), Imetit (Sigma, I-135), Thioperamide (Tocris, 0644), and Clobenpropit (Tocris, 0754) diluted in assay buffer.
The compounds provided herein were tested in the histamine H3 in vitro assay. In one embodiment, the respective HCl salts of the compounds provided herein were prepared using standard chemical procedures and tested in the histamine H3 in vitro assay.

[2] = In vivo rat PK, brain exposures; conditions: adult male rats, oral gavage in water; for concentration at 1 hr: 1 hr after dosing, read-out: Compound Concentration (ng/g rat brain) 1 hr; for concentration at 24 hr: 24 hr after dosing, read-out: Compound Concentration (ng/g rat brain) 24 hr
Description: In vivo rat PK studies were performed using certain compounds provided herein. In one embodiment, a compound was dissolved in water and was administered to adult male rats (n=3 per time point) by oral gavage at a dose of 3 to 10 mg/kg. The plasma samples were collected and brain tissues were harvested at various time points after dosing, e.g., 15 min, 30 min, 1 hr, 2 hr, and 24 hr after dosing. The PK samples were analyzed; and the compound concentrations in these samples were quantified by LC/MS. The pKa values of the R^6 moiety of the compounds were calculated using ACD Lab (Version 12.01).

| Structure (SMILES) | IC50 [1] [nM] | also measured |
| --- | --- | --- |
| N#Cc1ccc(-c2ccc3c(c2)CC2(CCN(C4CCC4)CC2)O3)cc1 [Compound 5, 4-(1′-Cyclobutyl-3H-spiro[benzofuran-2,4′-piperidine]-5-yl)benzonitrile] | ≤ 10 | concentration at 1 hr ([2]; 5 mg/kg): 3100 ng/g; concentration at 24 hr ([2]; 5 mg/kg): 400 ng/g |
| c1cn2cc(-c3ccc4c(c3)CC3(CCN(C5CCC5)CC3)O4)ccc2n1 [Compound 30, 1′-Cyclobutyl-5-(imidazo[1,2-a]pyridin-6-yl)-3H-spiro[benzofuran-2,4′-piperidine]] | ≤ 10 | concentration at 1 hr ([2]; 10 mg/kg): 5200 ng/g; concentration at 24 hr ([2]; 10 mg/kg): 250 ng/g |
| c1cc2c(cc1-c1ccc3nncn3c1)CC1(CCN(C3CCC3)CC1)O2 [Compound 63] | ≤ 10 |  |
| Cn1ncc2ccc(-c3ccc4c(c3)CC3(CCN(C5CCC5)CC3)O4)cc21 [Compound 65, 1′-Cyclobutyl-5-(1-methyl-1H-indazol-6-yl)-3H-spiro[benzofuran-2,4′-piperidine]] | ≤ 10 |  |
| Cn1cc2ccc(-c3ccc4c(c3)CC3(CCN(C5CCC5)CC3)O4)cc2n1 [Compound 66, 1′-Cyclobutyl-5-(2-methyl-2H-indazol-6-yl)-3H-spiro[benzofuran-2,4′-piperidine]] | ≤ 10 |  |
| c1cn2cc(-c3ccc4c(c3)OC3(CCCN(C5CCC5)CC3)C4)ccc2n1 (centres unmarked) [Compound 69, 1-Cyclobutyl-6′-(imidazo[1,2-a]pyridin-6-yl)-3′H-spiro[azepane-4,2′-benzofuran]] | ≤ 100 |  |
| N#Cc1ccc(-c2ccc3c(c2)CC2(CCN4CCCCC4C2)O3)cc1 (centres unmarked) [Compound 74, 4-(-1′,3′,4′,6′,7′,8′,9′,9a′-Octahydro-3H-spiro[benzofuran-2,2′-quinolizin]-5-yl)benzonitrile] | ≤ 10 |  |
| c1cn2cc(-c3ccc4c(c3)CC3(CCN5CCCCC5C3)O4)ccc2n1 (centres unmarked) [Compound 77, 5-(Imidazo[1,2-a]pyridin-6-yl)-1′,3′,4′,6′,7′,8′,9′,9a′-octahydro-3H-spiro[benzofuran-2,2′-quinolizine]] | ≤ 10 |  |
| c1cc2c(cc1CN1CCOCC1)CC1(CCN3CCCCC3C1)O2 (centres unmarked) [Compound 78, 5-(Morpholinomethyl)-1′,3′,4′,6′,7′,8′,9′,9a′-octahydro-3H-spiro[benzofuran-2,2′-quinolizine]] | ≤ 10 |  |
| c1cc2c(cc1CN1CCOCC1)CC1(CCN3CCCCC3C1)O2 (centres unmarked) [Compound 79, 5-(Morpholinomethyl)-1′,3′,4′,6′,7′,8′,9′,9a′-octahydro-3H-spiro[benzofuran-2,2′-quinolizine]] | ≤ 10 |  |
| c1ccc2c(c1)CCN(Cc1ccc3c(c1)CC1(CCN4CCCCC4C1)O3)C2 (centres unmarked) [Compound 80, 5-((3,4-Dihydroisoquinolin-2(1H)-yl)methyl)-1′,3′,4′,6′,7′,8′,9′,9a′-octahydro-3H-spiro[benzofuran-2,2′-quinolizine]] | ≤ 10 |  |
| c1ccc2c(c1)CCN(Cc1ccc3c(c1)CC1(CCN4CCCCC4C1)O3)C2 (centres unmarked) [Compound 81, 5-((3,4-Dihydroisoquinolin-2(1H)-yl)methyl)-1′,3′,4′,6′,7′,8′,9′,9a′-octahydro-3H-spiro[benzofuran-2,2′-quinolizine]] | ≤ 10 |  |
| N#Cc1ccc(-c2ccc3c(c2)CC2(CCC4CCCCN4CC2)O3)cc1 (centres unmarked) [Compound 85, 4-(2′,3′,4′,6′,7′,9′,10′,10a′-Octahydro-1′H,3H-spiro[benzofuran-2,8′-pyrido[1,2-a]azepin]-5-yl)benzonitrile] | ≤ 10 |  |
| N#Cc1ccc(-c2ccc3c(c2)CC2(CCCN4CCCCC4C2)O3)cc1 (centres unmarked) [Compound 86, 4-(2′,3′,4′,6′,7′,8′,10′,10a′-octahydro-1′H,3H-spiro[benzofuran-2,9′-pyrido[1,2-a]azepin]-5-yl)benzonitrile] | ≤ 10 |  |
| Brc1ccc2c(c1)CC1(CCN3CCCC3C1)O2 (centres unmarked) [Compound 89, 5-Bromo-2′,3′,5′,6′,8′,8a′-hexahydro-1′H,3H-spiro[benzofuran-2,7′-indolizine]] | ≤ 100 |  |
| N#Cc1ccc(-c2ccc3c(c2)CC2(CCN4CCCC4C2)O3)cc1 (centres unmarked) [Compound 90, 4-(2′,3′,5′,6′,8′,8a′-Hexahydro-1′H,3H-spiro[benzofuran-2,7′-indolizin]-5-yl)benzonitrile] | ≤ 10 |  |
| c1cc2c(cc1CN1CCOCC1)CC1(CCN3CCCC3C1)O2 (centres unmarked) [Compound 92, 5-(Morpholinomethyl)-2′,3′,5′,6′,8′,8a′-hexahydro-1′H,3H-spiro[benzofuran-2,7′-indolizine]] | ≤ 10 |  |
| c1ccc2c(c1)CCN(Cc1ccc3c(c1)CC1(CCN4CCCC4C1)O3)C2 (centres unmarked) [Compound 93] | ≤ 10 |  |

More lines, main results first:

| IC50 [1] [nM] | Structure (SMILES) | also measured |
| --- | --- | --- |
| ≤ 10 | c1cc2ncc(-c3ccc4c(c3)CC3(CCN(C5CCC5)CC3)O4)cc2o1 [Compound 60, 1′-Cyclobutyl-5-(furo[3,2-b]pyridin-6-yl)-3H-spiro[benzofuran-2,4′-piperidine]] |  |
| ≤ 10 | Cn1cnc2cc(-c3ccc4c(c3)CC3(CCN(C5CCC5)CC3)O4)cnc21 [Compound 61, 1′-Cyclobutyl-5-(3-methyl-3H-imidazo[4,5-b]pyridin-6-yl)-3H-spiro[benzofuran-2,4′-piperidine]] |  |
| ≤ 10 | c1nc2ccc(-c3ccc4c(c3)CC3(CCN(C5CCC5)CC3)O4)cn2n1 [Compound 62, 5-([1,2,4]Triazolo[1,5-a]pyridin-6-yl)-1′-cyclobutyl-3H-spiro[benzofuran-2,4′-piperidine]] |  |
| ≤ 10 | c1cc2c(cc1-c1cnc3[nH]ncc3c1)CC1(CCN(C3CCC3)CC1)O2 [Compound 64, 1′-Cyclobutyl-5-(1H-pyrazolo[3,4-b]pyridin-5-yl)-3H-spiro[benzofuran-2,4′-piperidine]] |  |
| ≤ 1000 | Clc1ccc2c(c1)OC1(CCCN(C3CCC3)CC1)C2 (centres unmarked) [Compound 67, 6′-Chloro-1-cyclobutyl-3′H-spiro[azepane-4,2′-benzofuran]] |  |
| ≤ 100 | N#Cc1ccc(-c2ccc3c(c2)OC2(CCCN(C4CCC4)CC2)C3)cc1 (centres unmarked) [Compound 68, 4-(1-Cyclobutyl-3′H-spiro[azepane-4,2′-benzofuran]-6′-yl)benzonitrile] |  |
| ≤ 10 | c1ccc2c(c1)ncn2-c1ccc2c(c1)OC1(CCCN(C3CCC3)CC1)C2 (centres unmarked) [Compound 70, 6′-(1H-Benzo[d]imidazol-1-yl)-1-cyclobutyl-3′H-spiro[azepane-4,2′-benzofuran]] |  |
| ≤ 100 | c1cc2c(cc1N1CCCCC1)OC1(CCCN(C3CCC3)CC1)C2 (centres unmarked) [Compound 71, 1-Cyclobutyl-6′-(piperidin-1-yl)-3′H-spiro[azepane-4,2′-benzofuran]] |  |
| ≤ 10 | N#Cc1ccc(-c2ccc3c(c2)CC2(CCN4CCCCC4C2)O3)cc1 (centres unmarked) [Compound 75, 4-(-1′,3′,4′,6′,7′,8′,9′,9a′-Octahydro-3H-spiro[benzofuran-2,2′-quinolizin]-5-yl)benzonitrile] |  |
| ≤ 10 | c1cn2cc(-c3ccc4c(c3)CC3(CCN5CCCCC5C3)O4)ccc2n1 (centres unmarked) [Compound 76, 5-(Imidazo[1,2-a]pyridin-6-yl)-1′,3′,4′,6′,7′,8′,9′,9a′-octahydro-3H-spiro[benzofuran-2,2′-quinolizine]] |  |
| ≤ 100 | c1cn2cc(-c3ccc4c(c3)CC3(CCC5CCCCN5CC3)O4)ccc2n1 (centres unmarked) [Compound 83, 5-(Imidazo[1,2-a]pyridin-6-yl)-2′,3′,4′,6′,7′,9′,10′,10a′-octahydro-1′H,3H-spiro[benzofuran-2,8′-pyrido[1,2-a]azepine]] |  |
| ≤ 100 | c1cn2cc(-c3ccc4c(c3)CC3(CCCN5CCCCC5C3)O4)ccc2n1 (centres unmarked) [Compound 84, 5-(imidazo[1,2-a]pyridin-6-yl)-2′,3′,4′,6′,7′,8′,10′,10a′-octahydro-1′H,3H-spiro[benzofuran-2,9′-pyrido[1,2-a]azepine]] |  |
| ≤ 10 | c1cn2cc(-c3ccc4c(c3)CC3(CCN5CCCC5C3)O4)ccc2n1 (centres unmarked) [Compound 91, 5-(Imidazo[1,2-a]pyridin-6-yl)-2′,3′,5′,6′,8′,8a′-hexahydro-1′H,3H-spiro[benzofuran-2,7′-indolizine]] |  |

Reference: US20120077802A1 (SUNOVION PHARMACEUTICALS INC., priority 2009, published 2012)
